{"source": "patent US9328118B2", "about": "“Nitrogen-containing bicyclic aromatic heterocyclic compound” (ASTELLAS PHARMA INC., priority 2012, dated 2016)"}
{"molecular_target": "human cathepsin S (Homo sapiens (Human), UniProt P25774)", "sequence (P25774 115-331)": "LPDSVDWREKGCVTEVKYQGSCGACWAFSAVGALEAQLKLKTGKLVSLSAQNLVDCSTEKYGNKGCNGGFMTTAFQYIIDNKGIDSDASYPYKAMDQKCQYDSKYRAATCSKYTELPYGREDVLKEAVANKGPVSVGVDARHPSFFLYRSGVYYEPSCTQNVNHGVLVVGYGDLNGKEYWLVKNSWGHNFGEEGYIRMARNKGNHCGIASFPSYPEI", "test": "In vitro human cathepsin S inhibitory activity (VVR-AMC fluorescence)", "assay_type": "biochemical", "settings": "human cathepsin S enzyme, substrate VVR-AMC 40 μM, pH 4.5, 37° C.; read-out: IC50 value of the human cathepsin S inhibitory activity (Data 1)", "protocol": "Test Example 1 Measurement of a In Vitro Human Cathepsin S Inhibitory Activity\n5 μL of a human cathepsin S enzyme (R&D1183-CY-010) was added to a 96-well plate so as to be 20 ng/well. […] A reaction rate at the time of not adding an enzyme in which the test compound was not added and a reaction rate at the time of adding an enzyme in which the test compound was not added were set to 100% inhibition and 0% inhibition, respectively, then, an inhibition rate at each concentration was determined, and IC50 values were calculated by a linear regression method. In the Table, Ex represents Example compound No., and Data 1 represents an IC50 value (nM) of the human cathepsin S inhibitory activity.", "units": {"IC50": "nM"}}
{"compound": "CN(C)C(=O)CN1CCC(CCOc2ccc(-c3nc(C#N)nc4c3ccn4C)cc2C(F)(F)F)CC1", "note": "[Example 3, 2-(4-{2-[4-(2-cyano-7-methyl-7H-pyrrolo[2,3-d]pyrimidin-4-yl)-2-(trifluoromethyl)phenoxy]ethyl}piperidin-1-yl)-N,N-dimethylacetamide]", "IC50": 2.6}
{"compound": "CN1CCC[C@@H]1C(=O)N1CCC(CCOc2ccc(-c3nc(C#N)nc4c3ncn4C)cc2C(F)(F)F)CC1", "note": "[Example 6, 9-methyl-6-[4-{2-[1-(1-methyl-D-prolyl)piperidin-4-yl]ethoxy}-3-(trifluoromethyl)phenyl]-9H-purine-2-carbonitrile]", "IC50": 3.4}
{"compound": "CN1CCC[C@@H]1C(=O)N1CC[C@H](OCCOc2ncc(-c3nc(C#N)nc4c3ccn4C)cc2C(F)(F)F)C1", "note": "[Example 143, 7-methyl-4-[6-(2-{[(3S)-1-(1-methyl-D-prolyl)pyrrolidin-3-yl]oxy}ethoxy)-5-(trifluoromethyl)pyridin-3-yl]-7H-pyrrolo[2,3-d]pyrimidine-2-carbonitrile monofumarate]", "IC50": 1.5}
{"compound": "CC(C)CN1CCC(CCOc2ncc(-c3nc(C#N)nc4c3ncn4C)cc2C(F)(F)F)CC1", "note": "[Example 144]", "IC50": 2.8}
{"compound": "Cn1cnc2c(-c3cnc(OCCC4CCN(C(CF)CF)CC4)c(C(F)(F)F)c3)nc(C#N)nc21", "note": "[Example 145]", "IC50": 1}
{"compound": "Cn1cnc2c(-c3cnc(OCCC4CCN(C(C)(C)C)CC4)c(C(F)(F)F)c3)nc(C#N)nc21", "note": "[Example 146]", "IC50": 3.2}
{"compound": "Cn1ccc2c(-c3cnc(OCCOC4CCNCC4)c(C(F)(F)F)c3)nc(C#N)nc21", "note": "[Example 147]", "IC50": 2.4}
{"compound": "Cn1ccc2c(-c3cnc(OCCO[C@H]4CCNC4)c(C(F)(F)F)c3)nc(C#N)nc21", "note": "[Example 148]", "IC50": 2.8}
{"compound": "CN1CCC[C@H]1C(=O)N1CCC(OCCOc2ncc(-c3nc(C#N)nc4c3ccn4C)cc2C(F)(F)F)CC1", "note": "[Example 149]", "IC50": 2.7}
{"compound": "CN1CCC[C@H]1C(=O)N1CC[C@H](OCCOc2ncc(-c3nc(C#N)nc4c3ccn4C)cc2C(F)(F)F)C1", "note": "[Example 150]", "IC50": 1.7}
{"compound": "Cn1ccc2c(-c3cnc(OCC4CCNCC4)c(C(F)(F)F)c3)nc(C#N)nc21", "note": "[Example 153]", "IC50": 1.6}
{"compound": "Cn1ccc2c(-c3cnc(OCC4CCN(C(=O)[C@@H]5CCCN5)CC4)c(C(F)(F)F)c3)nc(C#N)nc21", "note": "[Example 154]", "IC50": 2.4}
{"compound": "Cn1ccc2c(-c3cnc(OCC4CCN(CC(C)(C)O)CC4)c(C(F)(F)F)c3)nc(C#N)nc21", "note": "[Example 155]", "IC50": 1.5}
{"compound": "CC(C)N1CCC[C@H]1C(=O)N1CCC(COc2ncc(-c3nc(C#N)nc4c3ccn4C)cc2C(F)(F)F)CC1", "note": "[Example 156]", "IC50": 2.4}
{"compound": "CN1CCC[C@H]1C(=O)N1CC[C@@H](OCCOc2ncc(-c3nc(C#N)nc4c3ccn4C)cc2C(F)(F)F)C1", "note": "[Example 157]", "IC50": 2.1}
{"compound": "Cn1ccc2c(-c3cnc(OCC4CCN(C(=O)C5CCNCC5)CC4)c(C(F)(F)F)c3)nc(C#N)nc21", "note": "[Example 159]", "IC50": 2.7}
{"compound": "Cn1ccc2c(-c3cnc(OCC4CCN(C(=O)C5CCN(C6CCOCC6)CC5)CC4)c(C(F)(F)F)c3)nc(C#N)nc21", "note": "[Example 160]", "IC50": 2.4}
{"system": "MHC class II expression in B220 positive B cells of mouse spleen cells", "test": "In vitro MHC class II expression inhibitory effect using mouse spleen cells (LPS-stimulated B cells, flow cytometry)", "assay_type": "cell-based, C57BL/6 mice", "settings": "B-cell, C57BL/6 spleen cells, LPS 2 μg/mL, 48 hours, B220 positive B cells, read-out: IC50 value of MHC class II expression inhibition (Data 2)", "protocol": "Test Example 2 Evaluation of In Vitro MHC Class II Expression Inhibitory Effect Using Mouse Spleen Cells (Cell Evaluation System)\nIn antigen-presenting cells, the inhibition of cathepsin S inhibits the expression of MHC class II molecules. […] For an increased expression of MI-IC class II in B cells, the inhibitory effect of the compound represented by formula (I) was examined.\nFirst, spleen cells collected from C57BL/6 mice were seeded in a 96-well plate so as to be a 1×10^5 cells/well, then, 5-fold dilution of 10 mM DMSO solution of the test compound was serially performed with RPMI 1640 medium (including 10% fetal bovine serum (FCS), 5×10^−5 M 2-mercaptoethanol, 50 IU/mL penicillin and 50 μg/mL streptomycin) nine times such that the final concentration becomes 0.026 nM to 10 μM, and the resultant products were added thereto (the final DMSO concentration was 0.1%). At the same time, LPS (Sigma L4005) was added to the wells such that the final concentration becomes 2 μg/mL, and culture was performed at 37° C. for 48 hours in 5% CO2. After culturing, the cells were stained at 4° C. for 20 minutes with PE-labeled streptavidin (BD BIOSCIENCE 554061) and biotin-labeled YAe antibody (EBIOSCIENCE 13-5741-85) together with FITC-labeled anti-mouse B220 antibody (BD BIOSCIENCE 553088), and an expression level (fluorescence intensity of YAe-biotin/streptavidin-PE) of MHC class II to which Ea peptide in B220 positive B cells was bonded was measured using a flow cytometry system (Guava EasyCyte Plus System, manufactured by Millipore Corporation). A value at the time of unstimulation of LPS in which the test compound was not added and a value at the time of stimulation of LPS in which the test compound was not added were set to 100% inhibition and 0% inhibition, respectively, then, an inhibition rate at each concentration was determined, and IC50 values were calculated by a linear regression method. In the Table, Ex represents Example compound No., and Data 2 represents an IC50 value (nM).", "units": {"IC50": "nM"}}
{"compound": "CN(C)C(=O)CN1CCC(CCOc2ccc(-c3nc(C#N)nc4c3ccn4C)cc2C(F)(F)F)CC1", "note": "[Example 3, 2-(4-{2-[4-(2-cyano-7-methyl-7H-pyrrolo[2,3-d]pyrimidin-4-yl)-2-(trifluoromethyl)phenoxy]ethyl}piperidin-1-yl)-N,N-dimethylacetamide]", "IC50": 1}
{"compound": "CN1CCC[C@@H]1C(=O)N1CCC(CCOc2ccc(-c3nc(C#N)nc4c3ncn4C)cc2C(F)(F)F)CC1", "note": "[Example 6, 9-methyl-6-[4-{2-[1-(1-methyl-D-prolyl)piperidin-4-yl]ethoxy}-3-(trifluoromethyl)phenyl]-9H-purine-2-carbonitrile]", "IC50": 0.69}
{"compound": "Cn1cnc2c(-c3ccc(OCCC4CCNCC4)c(C(F)(F)F)c3)nc(C#N)nc21", "note": "[Example 19]", "IC50": 0.7}
{"compound": "CN(C)C(=O)CN1CCC(CCOc2ccc(-c3nc(C#N)nc4c3ccn4CCO)cc2C(F)(F)F)CC1", "note": "[Example 21]", "IC50": 1}
{"compound": "N#Cc1nc(-c2ccc(OCCC3CCNCC3)c(C(F)(F)F)c2)c2ccn(CC3CCOC3)c2n1", "note": "(stereo not shown) [Example 23]", "IC50": 3}
{"compound": "Cn1cnc2c(-c3ccc(OCCC4CCN(CCO)CC4)c(C(F)(F)F)c3)nc(C#N)nc21", "note": "[Example 24]", "IC50": 0.8}
{"compound": "CCN1CCC(CCOc2ccc(-c3nc(C#N)nc4c3ncn4C)cc2C(F)(F)F)CC1", "note": "[Example 26]", "IC50": 0.61}
{"compound": "CCN1CCC(CCOc2ncc(-c3nc(C#N)nc4c3ccn4C)cc2C(F)(F)F)CC1", "note": "[Example 27]", "IC50": 1.3}
{"compound": "CN1CCC[C@H]1C(=O)N1CCC(CCOc2ccc(-c3nc(C#N)nc4c3ncn4C)cc2C(F)(F)F)CC1", "note": "[Example 29]", "IC50": 0.66}
{"compound": "CN1CCC[C@H]1C(=O)N1CCC(CCOc2ccc(-c3nc(C#N)nc4c3ccn4CC3CCOC3)cc2C(F)(F)F)CC1", "note": "(stereo partly shown) [Example 30]", "IC50": 0.97}
{"compound": "CN1CCC[C@H]1C(=O)N1CCC(CCOc2ncc(-c3nc(C#N)nc4c3ncn4C)cc2C(F)(F)F)CC1", "note": "[Example 40]", "IC50": 0.85}
{"compound": "CN1CCC[C@H]1C(=O)N1CCC(CCOc2ncc(-c3nc(C#N)nc4c3ccn4C)cc2C(F)(F)F)CC1", "note": "[Example 41]", "IC50": 1.1}
{"compound": "CCN1CCC(CCOc2ncc(-c3nc(C#N)nc4c3ccn4CC3CCOC3)cc2C(F)(F)F)CC1", "note": "(stereo not shown) [Example 52]", "IC50": 1.8}
{"compound": "CCN1CCC(CCOc2ccc(-c3nc(C#N)nc4c3ccn4CC3CCOC3)cc2C(F)(F)F)CC1", "note": "(stereo not shown) [Example 54]", "IC50": 0.94}
{"compound": "N#Cc1nc(-c2ccc(OCCC3CCNCC3)c(C(F)(F)F)c2)c2ccn(CC3CCCO3)c2n1", "note": "(stereo not shown) [Example 58]", "IC50": 2}
{"compound": "CN(C)C(=O)CN1CCC(CCOc2ccc(-c3nc(C#N)nc4c3ccn4CC3CCOC3)cc2C(F)(F)F)CC1", "note": "(stereo not shown) [Example 66]", "IC50": 2.1}
{"compound": "CCN1CCC(CCOc2ccc(-c3nc(C#N)nc4c3ncn4CC3CCOC3)cc2C(F)(F)F)CC1", "note": "(stereo not shown) [Example 70]", "IC50": 0.76}
{"compound": "CCN1CCC(CCOc2ncc(-c3nc(C#N)nc4c3ncn4CC3CCOC3)cc2C(F)(F)F)CC1", "note": "(stereo not shown) [Example 71]", "IC50": 1.3}
{"compound": "CN(C)C(=O)CN1CCC(CCOc2ccc(-c3nc(C#N)nc4c3ncn4C)cc2C(F)(F)F)CC1", "note": "[Example 72]", "IC50": 0.73}
{"compound": "CN1CCC[C@H]1C(=O)N1CCC(CCOc2ncc(-c3nc(C#N)nc4c3ncn4CC3CCOC3)cc2C(F)(F)F)CC1", "note": "(stereo partly shown) [Example 79]", "IC50": 2.5}
{"compound": "CCN1CCC(CCOc2ccc(-c3nc(C#N)nc4c3ccn4CC3CCCO3)cc2C(F)(F)F)CC1", "note": "(stereo not shown) [Example 88]", "IC50": 2.3}
{"compound": "CN1CCC[C@H]1C(=O)N1CCC(COc2ccc(-c3nc(C#N)nc4c3ccn4CC3CCOC3)cc2C(F)(F)F)CC1", "note": "(stereo partly shown) [Example 105]", "IC50": 0.91}
{"compound": "CCN1CCC(COc2ccc(-c3nc(C#N)nc4c3ccn4CC3CCOC3)cc2C(F)(F)F)CC1", "note": "(stereo not shown) [Example 106]", "IC50": 3.2}
{"compound": "CCN1CCC(CCOc2ccc(-c3nc(C#N)nc4c3ccn4CCO)cc2C(F)(F)F)CC1", "note": "[Example 110]", "IC50": 0.91}
{"compound": "Cn1ccc2c(-c3cnc(OCCC4CCNCC4)c(C(F)(F)F)c3)nc(C#N)nc21", "note": "[Example 116]", "IC50": 1.8}
{"compound": "Cn1cnc2c(-c3ccc(OCCC4CCN(CC(=O)N5CCC(C#N)CC5)CC4)c(C(F)(F)F)c3)nc(C#N)nc21", "note": "[Example 120]", "IC50": 1}
{"compound": "Cn1cnc2c(-c3ccc(OCCC4CCN(CC(=O)N5CC[C@H](F)C5)CC4)c(C(F)(F)F)c3)nc(C#N)nc21", "note": "[Example 122]", "IC50": 0.87}
{"compound": "Cn1ccc2c(-c3cnc(OCC4CCN(C(=O)C5CCN(CC(C)(C)O)CC5)CC4)c(C(F)(F)F)c3)nc(C#N)nc21", "note": "[Example 135, 4-{6-[(1-{[1-(2-hydroxy-2-methylpropyl)piperidin-4-yl]carbonyl}piperidin-4-yl)methoxy]-5-(trifluoromethyl)pyridin-3-yl}-7-methyl-7H-pyrrolo[2,3-d]pyrimidine-2-carbonitrile]", "IC50": 0.89}
{"compound": "Cn1cnc2c(-c3cnc(OCCC4CCN(C5CCC5)CC4)c(C(F)(F)F)c3)nc(C#N)nc21", "note": "[Example 141]", "IC50": 0.65}
